According to patent US5593678A, “Protection of teleost fish” (University of Georgia Research Foundation, priority 1994, dated 1997):
Entries after “also recorded” stand apart in the source; their conditions may differ. Like-named read-outs stand apart in the source and are kept apart here.

Experiments:
NCC = conditions: cited from earlier work
[1] = tested on: NCC (lysis of IM-9 target cells); assay: Costimulation assay: NCC cytotoxicity (51Cr release) with A23187 or mab 5C6; format: cell-based, channel catfish (Ictalurus punctatus); conditions: for Percentage specific release: E:T 40:1, 10^-4 M A23187, 60 μM H7 and HA1004, 0.5 μg/ml genistein, 1:3 dilution of tissue culture supernatant, media control 20.6; for activity at 0.5 µg/mL: Ictalurus punctatus, IM-9, 2 h; for influence of pretreatment on A23187 activation: pretreatment prior to A23187
Procedure: Incubation was two hours and cells were either washed or not washed before addition to ^51 Cr-labeled IM-9 target cells (4- to 6-hour cytotoxicity assays).
To further investigate this inhibitory effect, a costimulus experiment was done using a calcium ionophore, e.g., A23187, combined with the various inhibitors and activators of NCC activity. Pretreatment of NCC with A23187 produced an almost identical increase in cytotoxicity regardless of the identity of the first treatment.
In a second costimulus experiment mab 5C6 was used (instead of A23187) to activate cytotoxicity (Table 6).

[2] = tested on: protein tyrosine kinase (PTK); conditions: NK cells; cited from earlier work
[3] = tested on: serine/threonine phosphorylation; conditions: NK cells; cited from earlier work
[4] = tested on: NCC membrane proteins (tyrosine phosphorylation); assay: Tyrosine phosphorylation of NCC membrane proteins following mab 5C6 activation (Western blot); format: cell-based, channel catfish (Ictalurus punctatus); conditions: NCC pretreated two hours with inhibitor; 100 μg/ml genistein or 30 μM HA1004
Procedure: FIG. 1. Tyrosine phosphorylation of NCC membrane proteins following activation by mab 5C6. NCC were resuspended at 500×10^6 /ml and 200 μl aliquots were incubated at 37° C. with either 125 μl ammonium sulfate precipitate mab 5C6 (left panel) or an isotype control (right panel). At the indicated timed intervals, the reactions were terminated by addition of 325 μl of 2×lysis buffer. Lysates were immunoprecipitated with mab 4G10, electrophoresed on 11% SDS-PAGE, blotted onto nitrocellulose, and probed with mab 4G10. Molecular weight markers are indicated by the arrows.
FIG. 2. Tyrosine phosphorylation of Percoll-enriched NCC. Fish NCC were centrifuged for 15 minutes at 500 g on a 45.5% Percoll cushion. The cells at the interphase were harvested, washed, and treated with mab 5C6 for 0 and 20 sec before addition of 2×lysis buffer. Lysates were electrophoresed, blotted on nitrocellulose, and probed with mab 4G10.
FIG. 3. Effects of genistein on tyrosine phosphorylation in fish NCC. Fish NCC were incubated with media, genistein (100 μg/ml), or HA1004 (30 μM) for two hours prior to activation for zero time with mab 5C6 (left lane) and 40 sec with either mab 5C6 (middle lane) or an irrelevant IgM isotype control (right lane). Reactions were stopped by addition of lysis buffer and lysates were processed as explained in the legends to FIGS. 1 and 2. […]

[5] = tested on: NCC (lysis of IM-9 target cells); assay: NCC cytotoxicity (51Cr release) after treatment with protein kinase inhibitors; format: cell-based, channel catfish (Ictalurus punctatus); conditions: for inhibition at 30 µM / inhibition at 60 µM: E:T 80:1
Procedure: To prepare NCC, fish were lightly anesthetized with ethyl m-aminobenzoate (Sigma Chemical Co.) in water and sacrificed.
IM-9 target cells were used in cytotoxicity assays. […] Cells were grown in stationary suspension cultures and were maintained at approximately 1×10^6 cells/ml. […]

[6] = tested on: cyclic nucleotide dependent kinases; conditions: cited from earlier work
human NK cells = conditions: same concentration of H-7; cited from earlier work

CNc1ccc2oc(C[C@H]3O[C@@]4(CC[C@H]3C)O[C@H]([C@H](C)C(=O)c3ccc[nH]3)[C@H](C)C[C@H]4C)nc2c1C(=O)O [A23187]
cytotoxicity of NCC (words, prior work) (NCC): activated NCC cytotoxicity and increased "receptor" expression | Percentage specific release [1]: 81.0% | activation of NCC cytotoxicity ([1]; Table 5): strong activation of NCC cytotoxicity | ability to overcome kinase inhibitor inhibition of NCC cytotoxicity ([1]; after H-7 or genistein): able to overcome the inhibition produced by treatment of NCC with H-7 or genistein

O=c1c(-c2ccc(O)cc2)coc2cc(O)cc(O)c12 [Genistein, genistein]
PTK activity [2]: inhibit PTK activity | Percentage specific release [1]: 11.0% | activity at 0.5 µg/mL ([1]; 4 × 10^6 NCC/ml, mabs 1:50 dilution, H-7, HA1004 60 μM, genistein 0.5 μg/ml, read-out: Percentage of control (E:T ratio) 40%): 38.9% | activity at 0.5 µg/mL ([1]; mabs 1:50 dilution, H-7, HA1004 60 μM, genistein 0.5 μg/ml, read-out: Percentage of control (E:T ratio) 20%): 35.5% | influence of pretreatment on A23187 activation [1]: did not produce any reductions in A23187 activation; also recorded: did not appear to be additive and did not influence the final level of activation | serine/threonine phosphorylation [3]: no effect on serine/threonine phosphorylation | specific protein phosphorylation after mab 5C6 [4]: Specific protein phosphorylation was not observed | inhibition of NCC cytotoxicity [5]: almost completely inhibited NCC activity in a dose-dependent fashion | inhibition at 142 µg/mL ([5]; Ictalurus punctatus, IM-9, 142 μg/ml, read-out: inhibition of cytotoxicity): ~100% | inhibition at 14.2 µg/mL ([5]; Ictalurus punctatus, 14.2 μg/ml, E:T 20:1, 6 hours, read-out: Percentage inhibition (NCC lysis of IM-9)): 55.5% | inhibition at 28.4 µg/mL ([5]; Ictalurus punctatus, 28.4 μg/ml, E:T 20:1, 6 hours, read-out: Percentage inhibition (NCC lysis of IM-9)): 75.9% | inhibition at 57 µg/mL ([5]; Ictalurus punctatus, 57.0 μg/ml, E:T 20:1, 6 hours, read-out: Percentage inhibition (NCC lysis of IM-9)): 64.9% | inhibition at 142 µg/mL ([5]; Ictalurus punctatus, 142.0 μg/ml, E:T 20:1, 6 hours, read-out: Percentage inhibition (NCC lysis of IM-9)): 94% | inhibition of cytotoxicity ([5]; between approximately 14 and approximately 57 μg/ml): greater than 50%

CC1CNCCN1S(=O)(=O)c1cccc2cnccc12.Cl.Cl (stereo not shown) [H-7, 1-(5-isoquinolinesulfonyl)-2-methylpiperazine di-HCl]
inhibition of cyclic nucleotide dependent kinases [6]: to a lesser extent it inhibits cyclic nucleotide kinases | inhibition of human NK cells (human NK cells): 60-90% | Percentage of control (E:T ratio) 40% ([1]; 4 × 10^6 NCC/ml, mabs 1:50 dilution, H-7, HA1004 60 μM, genistein 0.5 μg/ml, 120 min): 37.5% | Percentage specific release [1]: 9.1% | Percentage of control (E:T ratio) 20% ([1]; mabs 1:50 dilution, H-7, HA1004 60 μM, genistein 0.5 μg/ml, 120 min): 53.9% | influence of pretreatment on A23187 activation ([1]; di-HCl): did not produce any reductions in A23187 activation; also recorded: did not appear to be additive and did not influence the final level of activation | inhibition at 30 µM ([5]; Ictalurus punctatus, 1 h, read-out: Percentage inhibition (NCC lysis of IM-9), 30 μM, 60 min): 12.5% | inhibition at 60 µM ([5]; Ictalurus punctatus, 1 h, read-out: Percentage inhibition (NCC lysis of IM-9), 60 μM, 60 min): 10.2% | inhibition at 30 µM ([5]; Ictalurus punctatus, 2 h, read-out: Percentage inhibition (NCC lysis of IM-9), 30 μM, 120 min): 31% | inhibition at 60 µM ([5]; Ictalurus punctatus, 2 h, read-out: Percentage inhibition (NCC lysis of IM-9), 60 μM, 120 min): 12.6% | inhibition at 30 µM ([5]; Ictalurus punctatus, 3 h, read-out: Percentage inhibition (NCC lysis of IM-9), 30 μM, 180 min/wash): 34.2% | inhibition at 30 µM ([5]; Ictalurus punctatus, 3 h, read-out: Percentage inhibition (NCC lysis of IM-9), 30 μM, 180 min): 37.8% | inhibition at 60 µM ([5]; Ictalurus punctatus, 3 h, read-out: Percentage inhibition (NCC lysis of IM-9), 60 μM, 180 min/wash): 34.5% | inhibition at 60 µM ([5]; Ictalurus punctatus, 3 h, read-out: Percentage inhibition (NCC lysis of IM-9), 60 μM, 180 min): 35.7% | level of inhibition of NCC activity ([5]; summary of Table 1): approximately 35% | effect of removal (washing) of inhibitor on cytotoxicity ([5]; washed prior to addition of target cells): did not substantially affect the cytotoxicity
